“And” between values parts separate entries of the source, which are not always exact repeats. Equal entries are not always repeated. Where two headings read alike, the source gives them in different places.
What was measured:
PDE-5A = PDE-5A (Homo sapiens (Human), UniProt O76074); assay: Caliper Mobility-Shift PDE-5A Assay; assay type: biochemical
Description: Caliper Mobility-Shift PDE-5A Assay:
A sample to be tested is precisely weighed, dissolved by adding DMSO, mixed sufficiently to form 10 mM solution.
The maximum final concentration of the compound was 10 μM. After incubation at 30° C. for 1 h, 20 μl of 70 μM EDTA was added to terminate reaction. Substrate and products were separated and analyzed by electrophoresis. Conversion rate was calculated by Caliper's Reviewer software, and inhibition rate was calculated by the following formulation, and IC50 was calculated from inhibition rate using Prism 5.0. Inhibition rate=[conversion rate (ZPE)−conversion rate (sample)]×100/[conversion rate (ZPE)−conversion rate (HPE)]
Notation: HPE: blank control without adding enzyme; ZPE: blank control without adding compound.

New Zealand rabbits = assay: Effects on penis length (AUC) by intravenous administration in New Zealand rabbits; assay type: in vivo; conditions: 10 mg/kg IV, sodium nitroprusside 0.2 mg/kg IV 5 min after administration
Excerpt: New Zealand rabbits were subjected to adapt environment, and the rabbits were catched everyday before experiment so that the rabbits were used to repeated catching operation, then administration and stimulation were lunched. The animals were randomly divided according to bodyweight, samples to be tested were separately dissolved with solvent (Table 3 group: Avanafil and Compound 19 were separately dissolved with 5% DMSO+30% Cremophor EL+65% water for injection; Table 4 group, Table 5 group: Avanafil, Compound 14, Compound 17 and Compound 7 were separately dissolved with 45% DMA+20% Cremophor EL+35% water for injection; Table 6 group: Avanafil and Compound 15 were separately dissolved with 30% DMF+50% PEG-400+20% water for injection), corresponding samples to be tested were injected via ear flange veins of these groups, Table 3, Table 4, Table 5, Table 6 groups all had dose of 10 mg/kg, administration volume of 2 ml/kg, 0.2 mg/kg of sodium nitroprusside was intravenously injected in administration volume of 0.5 ml/kg after 5 min of administration.
Lengths of penis of rabbits were measured by digital vernier caliper separately before administration and at 5, 10, 15, 30, 50, 60, 90 and 120 min after administration. During each measurement, touching between penis and vernier caliper should be avoided.

PDE-6 = conditions: background art, cited from earlier work
[1] = cited from earlier work
PDE-11 = PDE-11 (Homo sapiens (Human), UniProt Q9HCR9); conditions: background art; cited from earlier work
PDE-11, sequence (Q9HCR9 whole entry): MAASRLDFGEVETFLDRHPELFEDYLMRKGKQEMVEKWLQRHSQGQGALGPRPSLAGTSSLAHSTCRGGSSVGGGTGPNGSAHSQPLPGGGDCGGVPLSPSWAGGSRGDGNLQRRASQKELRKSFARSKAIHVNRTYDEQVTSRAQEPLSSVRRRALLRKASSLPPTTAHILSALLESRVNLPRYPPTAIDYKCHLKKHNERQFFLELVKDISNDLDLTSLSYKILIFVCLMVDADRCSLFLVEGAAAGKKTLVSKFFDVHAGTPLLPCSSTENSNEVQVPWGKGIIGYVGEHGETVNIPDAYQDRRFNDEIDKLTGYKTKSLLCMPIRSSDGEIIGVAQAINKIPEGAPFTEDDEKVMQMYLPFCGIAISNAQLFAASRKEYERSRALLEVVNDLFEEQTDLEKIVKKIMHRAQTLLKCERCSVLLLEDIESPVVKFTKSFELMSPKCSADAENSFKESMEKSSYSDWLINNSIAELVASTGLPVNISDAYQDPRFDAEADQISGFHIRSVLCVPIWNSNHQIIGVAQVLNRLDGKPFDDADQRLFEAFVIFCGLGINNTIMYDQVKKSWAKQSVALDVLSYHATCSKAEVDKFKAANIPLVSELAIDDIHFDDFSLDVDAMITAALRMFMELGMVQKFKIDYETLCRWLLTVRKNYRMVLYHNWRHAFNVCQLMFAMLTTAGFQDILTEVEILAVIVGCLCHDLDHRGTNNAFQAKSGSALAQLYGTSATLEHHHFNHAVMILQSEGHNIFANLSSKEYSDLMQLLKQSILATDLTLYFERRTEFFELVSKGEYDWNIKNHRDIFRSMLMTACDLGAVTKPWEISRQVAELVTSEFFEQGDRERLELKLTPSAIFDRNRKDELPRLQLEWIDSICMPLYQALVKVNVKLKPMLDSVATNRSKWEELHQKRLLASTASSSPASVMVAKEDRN

[2] = Determination of half-life in SD rats (IV and PO, plasma LC-MS/MS); conditions: Sprague-Dawley (SD), rat
Description: (§1) Avanafil as control drug and the compounds of the present invention (self-made) were dissolved with suitable solvents.
Instruments: API4000 LC-MS/MS
(§2) Chromatography column: Agilent XDB C18 (2.1×50 mm, 5 μm)
(§3) Blood sampling in rats: animals were fixed, tails were heated with water-bath at 10 min before each time point, about 100 μl of blood was collected via caudal vein, and the collected blood samples were placed in heparin sodium-containing anticoagulation tubes. The blood samples were centrifuged at 4° C. and 8,000 rpm for 6 min to obtain blood plasma samples, in which the blood plasma samples should be prepared with 30 min after blood sampling. The blood plasmas were stored in refrigerator with −80° C.
(§4) (1) Samples to be tested were taken out from refrigerator (−80° C.), melt at room temperature, then subjected to volution for 5 min;
(§5) (2) 20 μl of sample was precisely moved to 1.5 ml centrifuge tube;
(§6) (3) 200 μl of internal standard solution was added;
(§7) (4) After 5 min of volution, 5 min of centrifugation (12,000 rpm) was carried out;
(§8) (5) 100 μl of supernatant was precisely taken, 100 μl of water was added, subjected to volution for 5 min, and analyzed by LC-MS/MS.
(§9) Concentrations of samples to be tested (blood plasma samples) were the output results of Analyst 1.5.1 of AB SCIEX (Shanghai Aibocaisi Analytical Instruments Trading Co., Ltd.). Mean values, standard deviations and parameters such as variable coefficients were calculated by Microsoft Excel (when parameters were directly given by Analyst 1.5.1, they were not calculated). PK parameters were calculated using Pharsight Phoenix 6.1 software.

[3] = rat, in vivo, 2 mg/kg
Description: as §1
Instruments: API4000 LC-MS/MS
as §2, §3, §4, §5, §6, §7, §8, §9

in vivo = conditions: Sprague-Dawley (SD), rat, iv, 1 mg/kg
Description: as §1
Instruments: API4000 LC-MS/MS
as §2, §3, §4, §5, §6, §7, §8, §9

[4] = Table 3 group, 5% DMSO+30% Cremophor EL+65% water for injection
[5] = Table 4 group, 45% DMA+20% Cremophor EL+35% water for injection
[6] = Table 5 group, 45% DMA+20% Cremophor EL+35% water for injection
[7] = Table 6 group, 30% DMF+50% PEG-400+20% water for injection
[8] = test compound, read-out: IC50 values for PDE-5A, PDE-5A

Row | IC50 (PDE-5A; [8]) | SMILES | half-life ([2]; iv, 1 mg/kg) | further results
1 | – | COc1ccc(CN=c2[nH]c(N3CCC[C@H]3CO)ncc2C(=O)NCc2ncccn2)cc1Cl [Avanafil, reference compound] | – | IC50 (PDE-5A; Avanafil control value given, read-out: IC50 values for PDE-5A, Avanafil/PDE-5A): 10.8 nM (11×) and 19.2 nM and 12.7 nM (2×) and 17.3 nM (4×); Effects on penis length, AUC (mm × min) (New Zealand rabbits; [4]): 155.1 mm × min; Effects on penis length, AUC (mm × min) (New Zealand rabbits; [5]): 132.3 mm × min; Effects on penis length, AUC (mm × min) (New Zealand rabbits; [6]): 168.3 mm × min; Effects on penis length, AUC (mm × min) (New Zealand rabbits; [7]): 146.4 mm × min; ratio of PDE-6/5 (PDE-6; selectivity): about 120; half-life in human body [1]: about 1.2 h; inhibition of PDE-11 (PDE-11): does not inhibit PDE-11; half-life ([2]; iv, 2 mg/kg): 0.53 h; half-life ([2]; po, 2 mg/kg): 0.51 h
2 | 0.172 nM | COc1ccc(COc2nc(N3CC4CC4C3)ncc2C(=O)NCc2ccccc2)cc1Cl (stereo not drawn) [Compound 1, N-benzyl-2-(3-azadicyclo[3.1.0]hexan-3-yl)-4-(3-chloro-4-methoxybenzyloxy) pyrimidine-5-carboxamide] | 3.96 h | –
3 | 0.1 nM | COc1ccc(COc2nc(N3CC4CC4C3)ncc2C(=O)NCc2ncccn2)cc1Cl (stereo not drawn) [Compound 3, 2-(3-azadicyclo[3.1.0]hexan-3-yl)-4-(3-chloro-4-methoxy-benzyloxy)-N-(pyrimidin-2-ylmethyl)pyrimidine-5-carboxamide] | – | –
4 | 0.028 nM | COc1ccc(COc2nc(N3CC4CC4C3)ncc2C(=O)NCc2ccccn2)cc1Cl (stereo not drawn) [Compound 4, 2-(3-azadicyclo[3.1.0]hexan-3-yl)-4-(3-chloro-4-methoxybenzyloxy)-N-(pyridin-2-ylmethyl)pyrimidine-5-carboxamide] | 0.66 h | –
5 | 0.529 nM | COc1ccc(COc2nc(N3CC4CC4C3)ncc2C(=O)NCc2cnc(C)cn2)cc1Cl (stereo not drawn) [Compound 5, 2-(3-azadicyclo[3.1.0]hexan-3-yl)-4-(3-chloro-4-methoxy-benzyloxy)-N-[(5-methylpyrazin-2-yl)methyl]pyrimidine-5-carboxamide] | – | –
6 | 0.075 nM | COc1ccc(COc2nc(N3CC4CC4C3)ncc2C(=O)NCc2ccc(F)cc2)cc1Cl (stereo not drawn) [Compound 6, 2-(3-azadicyclo[3.1.0]hexan-3-yl)-4-(3-chloro-4-methoxy-benzyloxy)-N-(4-fluorobenzyl)pyrimidine-5-carboxamide] | 1.74 h | –
7 | 0.739 nM | COc1ccc(COc2nc(N3CC4CC4C3)ncc2C(=O)N[C@H]2CC[C@H](O)CC2)cc1Cl (stereo partly drawn) [Compound 7, 2-(3-azadicyclo[3.1.0]hexan-3-yl)-4-(3-chloro-4-methoxy-benzyloxy)-N-[(trans)-4-hydroxycyclohexyl]pyrimidine-5-carboxamide] | – | Effects on penis length, AUC (mm × min) (New Zealand rabbits; [6]): 191.5 mm × min; half-life ([2]; iv, 2 mg/kg): 1.02 h; half-life ([2]; po, 4 mg/kg): 1.59 h
8 | 0.186 nM | COc1ccc(COc2nc(N3CCC4(CC3)CC4)ncc2C(=O)NCc2ccccn2)cc1Cl [Compound 9, 4-(3-chloro-4-methoxybenzyloxy)-N-(pyridin-2-ylmethyl)-2-(6-azaspiro[2.5]octan-6-yl)pyrimidine-5-carboxamide] | – | –
9 | 0.935 nM | COc1ccc(COc2nc(N3CCC4(CC3)CC4)ncc2C(=O)NCCN2CCOCC2)cc1Cl [Compound 11, 4-(3-chloro-4-methoxybenzyloxy)-N-(2-morpholinylethyl)-2-(6-azaspiro[2.5]octan-6-yl)pyrimidine-5-carboxamide] | – | –
10 | 0.213 nM | COc1ccc(COc2nc(N3CC4CC4C3)ncc2C(=O)NCCN2CCOCC2)cc1Cl (stereo not drawn) [Compound 13, 2-(3-azadicyclo[3.1.0]hexan-3-yl)-4-(3-chloro-4-methoxy-benzyloxy)-N-(2-morpholinylethyl)pyrimidine-5-carboxamide] | – | –
11 | 1.44 nM | COc1ccc(COc2nc(N3CCC4(CC4)C3)ncc2C(=O)NCc2ncccn2)cc1Cl [Compound 18, 4-(3-chloro-4-methoxybenzyloxy)-N-(pyrimidin-2-ylmethyl)-2-(5-azaspiro[2.4]heptan-5-yl)-pyrimidine-5-carboxamide] | – | –
12 | – | COc1ccc(COc2nc(N3CCCC34CC4)ncc2C(=O)N[C@H]2CC[C@H](O)CC2)cc1Cl [Compound 20, 4-(3-chloro-4-methoxybenzyloxy)-N-[(trans)-4-hydroxycyclohexyl]-2-(4-azaspiro[2.4]heptan-4-yl)pyrimidine-5-carboxamide] | 0.87 h | –
13 | – | CCCc1nn(C)c2c(=O)[nH]c(-c3cc(S(=O)(=O)N4CCN(C)CC4)ccc3OCC)nc12 [Sildenafil] | – | inhibition of PDE-6 (PDE-6): inhibit PDE-6 to some extent
14 | – | CN1CC(=O)N2[C@H](c3ccc4c(c3)OCO4)c3[nH]c4ccccc4c3C[C@@H]2C1=O [Tadalafil] | – | half-life in human body [1]: about 16 h
15 | – | CCCc1nc(C)c2c(=O)[nH]c(-c3cc(S(=O)(=O)N4CCN(CC)CC4)ccc3OCC)nn12 [Vardenafil] | – | inhibition of PDE-6 (PDE-6): inhibit PDE-6 to some extent

Row | SMILES | IC50 (PDE-5A; [8]) | half-life ([2]; iv, 1 mg/kg) | further results
16 | COc1ccc(COc2nc(N3C4CCC3COC4)ncc2C(=O)NCc2ccccc2)cc1Cl [Compound 2, N-benzyl-2-(3-oxa-8-azadicyclo[3.2.1]octan-8-yl)-4-(3-chloro-4-methoxybenzyloxy)pyrimidine-5-carboxamide] | 4.01 nM | – | t1/2 (h) PO [3]: No; half-life (in vivo): 1.51 h
17 | COc1ccc(COc2nc(N3CCC4(CC3)CC4)ncc2C(=O)NCc2ncccn2)cc1Cl [Compound 8, 4-(3-chloro-4-methoxybenzyloxy)-N-(pyrimidin-2-ylmethyl)-2-(6-azaspiro[2.5]octan-6-yl)pyrimidine-5-carboxamide] | 0.476 nM | 1.34 h | –
18 | COc1ccc(COc2nc(N3CCC4(CC3)CC4)ncc2C(=O)NCc2ccccc2)cc1Cl [Compound 10, N-benzyl-4-(3-chloro-4-methoxybenzyloxy)-2-(6-azaspiro[2.5]octan-6-yl)pyrimidine-5-carboxamide] | 1.14 nM | 2.35 h | –
19 | COc1ccc(COc2nc(N3CCC4(CC3)CC4)ncc2C(=O)N[C@H]2CC[C@H](O)CC2)cc1Cl [Compound 12, 4-(3-chloro-4-methoxybenzyloxy)-N-[(trans)-4-hydroxycyclohexyl]-2-(6-azaspiro[2.5]octan-6-yl)pyrimidine-5-carboxamide] | 0.719 nM | 1.44 h | half-life ([2]; po, 1 mg/kg): 1.94 h
20 | COc1ccc(COc2nc(N3CCCC34CC4)ncc2C(=O)NCc2ccccc2)cc1Cl [Compound 14, N-benzyl-4-(3-chloro-4-methoxybenzyloxy)-2-(4-azaspiro[2.4]heptan-4-yl)-pyrimidine-5-carboxamide] | 1.98 nM | 2.21 h | Effects on penis length, AUC (mm × min) (New Zealand rabbits; [6]): 290.1 mm × min
21 | COc1ccc(COc2nc(N3CCC4(CC4)C3)ncc2C(=O)NCc2ccccc2)cc1Cl [Compound 15, N-benzyl-4-(3-chloro-4-methoxybenzyloxy)-2-(5-azaspiro[2.4]heptan-5-yl)-pyrimidine-5-carboxamide] | 0.119 nM | 3.32 h | Effects on penis length, AUC (mm × min) (New Zealand rabbits; [7]): 339.3 mm × min
22 | COc1ccc(COc2nc(N3CCC4(CC4)C3)ncc2C(=O)NCc2ccc(F)cc2)cc1Cl [Compound 17, 4-(3-chloro-4-methoxybenzyloxy)-N-(4-fluorobenzyl)-2-(5-azaspiro[2.4]heptan-5-yl)pyrimidine-5-carboxamide] | 2.08 nM | 1.64 h | Effects on penis length, AUC (mm × min) (New Zealand rabbits; [5]): 300.9 mm × min; half-life ([2]; po, 2 mg/kg): 3.26 h
23 | COc1ccc(COc2nc(N3CCC4(CC4)C3)ncc2C(=O)N[C@H]2CC[C@H](O)CC2)cc1Cl [Compound 19, 4-(3-chloro-4-methoxybenzyloxy)-N-[(trans)-4-hydroxycyclohexyl]-2-(5-azaspiro[2.4]heptan-5-yl)-pyrimidine-5-carboxamide] | 4.08 nM | 1.17 h | Effects on penis length, AUC (mm × min) (New Zealand rabbits; [4]): 523.3 mm × min; half-life ([2]; po, 2 mg/kg): 1.97 h
